From patent US20030207819A1, “Compositions and methods for treating inflammatory connective tissue diseases” (priority 2002, published 2003)

Tests used:
Assay type in all cases: in vivo, human
[1] = system: patient with undifferentiated connective tissue disease; test: Example 6: clarithromycin trial, VAS and joint assessment; details: person
Text: A patient, was first seen in September 1999. […] They have used a number of anti-inflammatory agents frequently for therapy.
On the basis of the findings, including recurrent episodes of arthritis, Raynaud's, and thickening of the hands, connective tissue disease diagnoses such as Mixed Connective Tissue Disease or Progressive Systemic Sclerosis were considered.
Based on these findings, a diagnosis of Undifferentiated Connective Tissue Disease was made. Therapy was initiated with hydroxychloroquine ([…]®, Sanofi-Synthelabo, Inc.) and a non-steroidal anti-inflammatory agent. They utilized steroid dose packs periodically for symptomatic relief of their peripheral symptoms as well as their neck symptoms.
On examination, they had symptoms and findings much as before and a diagnosis of Undifferentiated Connective Tissue Disease was made. The patient agreed to undergo a trial with clarithromycin.
Following screening and baseline evaluations, the patient was begun on clarithromycin (BIAXIN®, Abbott Laboratories).
25, 2003 (“Visit 3”), for their first recheck visit.
When seen for their one month evaluation, the patient had been off steroid medication for approximately ten days.
Further assessment of their status was made on Apr. 13, 2003 at which time they were now off steroids for almost a one-month period.
Patient was again seen Apr. 21, 2003 (“Visit Four”), for their formal two-month follow-up on clarithromycin.

[2] = system: patient with undifferentiated connective tissue disease; test: Example 1: clinical observation of patient on clarithromycin; details: person; switched from clarithromycin to azithromycin 500 mg day 1, 250 mg/day days 2 through 5
Text: We elected to continue them on this antibiotic. […] Because the patient was on Lodine (NSAID) at the same time, we elected to see if they could stop the Lodine and still have relief of symptoms.

[3] = system: patient with low-grade connective tissue symptoms; test: Example 5: clarithromycin study, VAS and joint assessment; details: person
Text: In 1991, it was elected to begin the patient on hydroxychloroquine ([…]®, Sanofi-Synthelabo, Inc.) given their low-grade connective tissue symptoms not responding to non-steroidal anti-inflammatory therapy. […] A trial of hydroxychloroquine was again initiated to see how they would tolerate it. […] Hydroxychloroquine was discontinued when they wanted to attempt getting pregnant again. Therapy most recently consisted of non-steroidal inflammatory agents and physical therapy.
On Feb. 27, 2003, the patient agreed to participate in the clarithromycin study. […] The patient was begun on clarithromycin (BIAXIN®, Abbott Laboratories) 500 mg twice per day.

CC1(C)S[C@@H]2[C@H](NC(=O)[C@H](N)c3ccc(O)cc3)C(=O)N2[C@H]1C(=O)O [amoxicillin]
effect on pain ([1]; amoxicillin tried on their own): of no help

CC[C@H]1OC(=O)[C@H](C)[C@@H](O[C@H]2C[C@@](C)(OC)[C@@H](O)[C@H](C)O2)[C@H](C)[C@@H](O[C@@H]2O[C@H](C)C[C@H](N(C)C)[C@H]2O)[C@](C)(O)C[C@@H](C)CN(C)[C@H](C)[C@@H](O)[C@]1(C)O [azithromycin]
Symptoms [2]: no increase in symptoms

CCN(CCO)CCCC(C)Nc1ccnc2cc(Cl)ccc12 (centres unmarked) [hydroxychloroquine]
symptomatic improvement ([1]; hydroxychloroquine with a non-steroidal anti-inflammatory agent, approximately six months): did not feel significant improvement
reason for discontinuation (adverse effect) ([3]; hydroxychloroquine begun 1991, approximately nine months): weight loss

CCN(CC)CCCC(C)Nc1c2ccc(Cl)cc2nc2ccc(OC)cc12 (centres unmarked) [quinacrine]
reason for discontinuation (skin colour) ([3]; quinacrine approximately one year, non-toxic condition): too yellow
